According to US20080274892A1, “Novel Haloalkylsulfonanilide Derivative, Herbicide, and Method of Use Thereof” (priority 2005, published 2008):

How the values were obtained:
[1] = system: transplanted paddy rice plant and Bulrush; experiment: Test Example 5: selectivity between transplanted paddy rice plant and weeds; format: in vivo; conditions: (highest dosage with no phytotoxicity to paddy rice)/(lowest dosage with effective level 4 on Bulrush); rice 3000-100 g/ha, Bulrush 300-10 g/ha; 21 days
Procedure, shortened: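 Transplanted paddy rice was treated at 3000, 1000, 300 and 100 g/ha active ingredient for phytotoxicity, and post-emergence bulrush at 300, 100, 30 and 10 g/ha. Plants were kept in a hothouse for 21 days. Growth inhibition versus untreated control was scored 0–4 (0%, 1–39%, 40–69%, 70–89%, 90–100%).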

bulrush [2] = experiment: Test Example 2: herbicidal efficacy on rice paddy weeds post-emergence; format: in vivo, Scirpus juncoides; conditions: post-emergence, one leaf stage, 21 days after treatment
false pimpernel [3] = experiment: as above; format: in vivo, Lindernia pyxidaria; conditions: post-emergence, one leaf stage, 21 days after treatment
bulrush [4] = experiment: Test Example 4: low dosage test for rice paddy weeds; format: in vivo, Scirpus juncoides; conditions: 300 g/ha as an active ingredient; plants treated at the one leaf stage; 21 days after treatment; vs untreated control
Procedure, shortened: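 Bulrush sown in clay loam pots, flooded to 5 cm water in a hot house, treated at the one-leaf stage with formulated compound at 300 g/ha. Efficacy scored 0–4 against untreated control 21 days after treatment (4 = 90–100%, 0 = 0% inhibition).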

[5] = system: paddy rice plant (cultivar: Nihonbare); experiment: Test Example 3: phytotoxicity test for transplanted paddy rice plant; format: in vivo; conditions: transplanted rice, 21 days after treatment
Procedure, shortened: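 Clay loam soil was placed in a 75 cm^2 plastic pot and flooded to a water depth of 5 cm. Two Nihonbare paddy rice plants at the two-leaf stage were transplanted 1 cm deep and grown in a hot house. After treatment, pots stayed in the hot house for 21 days, and phytotoxicity was then graded against an untreated control.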

barnyard glass = experiment: Test Example 2: herbicidal efficacy on rice paddy weeds post-emergence; format: in vivo, Echinochloa crus-galli; conditions: post-emergence, one leaf stage, 21 days after treatment
Procedure, shortened: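 Plastic pots of 75 cm^2 were filled with clay loam soil and sown with barnyard glass and bulrush seeds, then topped with 75 cm^3 soil containing false pimpernel seeds. The pots were flooded to 5 cm water depth and held in a hot house. Twenty-one days after treatment, herbicidal efficacy was graded against an untreated control.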

bulrush [6] = experiment: Test Example 1: herbicidal efficacy on rice paddy weeds pre-emergence; format: in vivo, Scirpus juncoides; conditions: 21 days
false pimpernel [7] = experiment: as above; format: in vivo, Lindernia pyxidaria; conditions: 21 days
[8] = dosage 1000 g/ha, treated 5 days after transplantation

Row | Structure (SMILES) | Selective Index [1] | Bulrush post (herbicidal efficacy grade) (bulrush [2]; dosage 1000 g/ha) | False pimpernel post (herbicidal efficacy grade) (false pimpernel [3]; dosage 1000 g/ha) | Herbicide effect to Bulrush (bulrush [4]) | Phytotoxicity to paddy rice [5, 8] | Burnyard grass post (herbicidal efficacy grade) (barnyard glass; dosage 1000 g/ha) | Bulrush pre (herbicidal efficacy grade) (bulrush [6]; dosage 1000 g/ha) | False pimpernel pre (herbicidal efficacy grade) (false pimpernel [7]; dosage 1000 g/ha) | Bulrush post (herbicidal efficacy grade) (bulrush [2]; dosage 300 g/ha) | False pimpernel post (herbicidal efficacy grade) (false pimpernel [3]; dosage 300 g/ha) | Phytotoxicity to paddy rice ([5]; dosage 300 g/ha) | Burnyard grass post (herbicidal efficacy grade) (barnyard glass; dosage 300 g/ha) | Bulrush pre (herbicidal efficacy grade) (bulrush [6]; dosage 300 g/ha) | False pimpernel pre (herbicidal efficacy grade) (false pimpernel [7]; dosage 300 g/ha)
1 | COC(=O)N(c1ccccc1CN1CC(C)(C(C)C)OC1=O)S(=O)(=O)C(F)(F)F (racemic) [1-114] | 30 | 4 (90%-100% of herbicidal efficacy or phytotoxicity) | 4 (90%-100% of herbicidal efficacy or phytotoxicity) | 4 (90%-100% of herbicidal efficacy or phytotoxicity) | 2 (40%-69% of herbicidal efficacy or phytotoxicity) | 4 (90%-100% of herbicidal efficacy or phytotoxicity) | 4 (90%-100% of herbicidal efficacy or phytotoxicity) | 4 (90%-100% of herbicidal efficacy or phytotoxicity) |  |  |  |  |  | 
2 | CCOC(=O)N(c1ccccc1CN1CC(C)(C(C)C)OC1=O)S(=O)(=O)C(F)(F)F (racemic) [1-115] | 10 | 4 (90%-100% of herbicidal efficacy or phytotoxicity) | 4 (90%-100% of herbicidal efficacy or phytotoxicity) | 4 (90%-100% of herbicidal efficacy or phytotoxicity) | 3 (70%-89% of herbicidal efficacy or phytotoxicity) | 4 (90%-100% of herbicidal efficacy or phytotoxicity) | 4 (90%-100% of herbicidal efficacy or phytotoxicity) | 4 (90%-100% of herbicidal efficacy or phytotoxicity) |  |  |  |  |  | 
3 | CCCOC(=O)N(c1ccccc1CN1CC(C)(C(C)C)OC1=O)S(=O)(=O)C(F)(F)F (racemic) [1-116] | 10 | 4 (90%-100% of herbicidal efficacy or phytotoxicity) | 4 (90%-100% of herbicidal efficacy or phytotoxicity) | 4 (90%-100% of herbicidal efficacy or phytotoxicity) | 1 (1%-39% of herbicidal efficacy or phytotoxicity) | 4 (90%-100% of herbicidal efficacy or phytotoxicity) | 4 (90%-100% of herbicidal efficacy or phytotoxicity) | 4 (90%-100% of herbicidal efficacy or phytotoxicity) |  |  |  |  |  | 
4 | CCCCOC(=O)N(c1ccccc1CN1CC(C)(C(C)C)OC1=O)S(=O)(=O)C(F)(F)F (racemic) [1-117] | 10 | 4 (90%-100% of herbicidal efficacy or phytotoxicity) | 4 (90%-100% of herbicidal efficacy or phytotoxicity) | 4 (90%-100% of herbicidal efficacy or phytotoxicity) | 2 (40%-69% of herbicidal efficacy or phytotoxicity) | 4 (90%-100% of herbicidal efficacy or phytotoxicity) | 4 (90%-100% of herbicidal efficacy or phytotoxicity) | 4 (90%-100% of herbicidal efficacy or phytotoxicity) |  |  |  |  |  | 
5 | CC(C)OC(=O)N(c1ccccc1CN1CC(C)(C2CC2)OC1=O)S(=O)(=O)C(F)(F)F (racemic) [1-118] | 30 | 4 (90%-100% of herbicidal efficacy or phytotoxicity) | 4 (90%-100% of herbicidal efficacy or phytotoxicity) | 4 (90%-100% of herbicidal efficacy or phytotoxicity) | 1 (1%-39% of herbicidal efficacy or phytotoxicity) | 4 (90%-100% of herbicidal efficacy or phytotoxicity) | 4 (90%-100% of herbicidal efficacy or phytotoxicity) | 4 (90%-100% of herbicidal efficacy or phytotoxicity) |  |  |  |  |  | 
6 | COCCOC(=O)N(c1ccccc1CN1CC(C)(C2CC2)OC1=O)S(=O)(=O)C(F)(F)F (racemic) [1-119] | 30 | 4 (90%-100% of herbicidal efficacy or phytotoxicity) | 4 (90%-100% of herbicidal efficacy or phytotoxicity) | 4 (90%-100% of herbicidal efficacy or phytotoxicity) | 1 (1%-39% of herbicidal efficacy or phytotoxicity) | 4 (90%-100% of herbicidal efficacy or phytotoxicity) | 4 (90%-100% of herbicidal efficacy or phytotoxicity) | 4 (90%-100% of herbicidal efficacy or phytotoxicity) |  |  |  |  |  | 
7 | CCCC1(C)CN(Cc2ccccc2NS(=O)(=O)C(F)(F)F)C(=O)O1 (racemic) [1-120] | 10 |  |  | 4 (90%-100% of herbicidal efficacy or phytotoxicity) |  |  |  |  | 4 (90%-100% of herbicidal efficacy or phytotoxicity) | 4 (90%-100% of herbicidal efficacy or phytotoxicity) | 2 (40%-69% of herbicidal efficacy or phytotoxicity) | 3 (70%-89% of herbicidal efficacy or phytotoxicity) | 4 (90%-100% of herbicidal efficacy or phytotoxicity) | 4 (90%-100% of herbicidal efficacy or phytotoxicity)
8 | CCCC1(C)CN(Cc2ccccc2N(C(=O)OCC(C)C)S(=O)(=O)C(F)(F)F)C(=O)O1 (racemic) [1-122] | 10 | 4 (90%-100% of herbicidal efficacy or phytotoxicity) | 4 (90%-100% of herbicidal efficacy or phytotoxicity) | 4 (90%-100% of herbicidal efficacy or phytotoxicity) | 1 (1%-39% of herbicidal efficacy or phytotoxicity) | 4 (90%-100% of herbicidal efficacy or phytotoxicity) | 4 (90%-100% of herbicidal efficacy or phytotoxicity) | 4 (90%-100% of herbicidal efficacy or phytotoxicity) |  |  |  |  |  | 
9 | COC(=O)N(c1ccccc1CN1CC(C)(CC(C)C)OC1=O)S(=O)(=O)C(F)(F)F (racemic) [1-124] | 10 | 4 (90%-100% of herbicidal efficacy or phytotoxicity) | 4 (90%-100% of herbicidal efficacy or phytotoxicity) | 4 (90%-100% of herbicidal efficacy or phytotoxicity) | 1 (1%-39% of herbicidal efficacy or phytotoxicity) | 4 (90%-100% of herbicidal efficacy or phytotoxicity) | 4 (90%-100% of herbicidal efficacy or phytotoxicity) | 4 (90%-100% of herbicidal efficacy or phytotoxicity) |  |  |  |  |  | 
